# Molecular target: T1, hKv1.7 (Homo sapiens, UniProt Q96RP8)
# T1 construct: expressed in transfected cells; host or cells: CHO cells (transient transfection)
# Assay: Whole cell patch clamp inhibition of hKv1.7 current in transiently transfected CHO cells (Example 5)
# Assay type: cell-based
# Conditions: hKv1.7, up to 3000 μM
# Method: Chemicals used in solution preparation were purchased from Sigma-Aldrich (St. Louis, Mo.), unless otherwise noted, and were of ACS reagent grade purity or higher. Stock solutions of each test article (100.104 mM and 1.00 mM 3,4-DAP phosphate and 100.023 mM and 336.335 mM N-(4-aminopyridin-3-yl) acetamide HCl) were prepared in sterile water, stored refrigerated and used within one day. […] All test article solutions contained 3% sterile water. The test articles were prepared in sufficient volume to run the assay (typically 50 mL).
# CHO cells, transiently transfected with hKv1.7, were cryopreserved in 90% FBS and 10% DMSO. Frozen vials of cells were thawed rapidly in a 37° C. water bath. Cells were transferred to a 15 mL conical tube, 10 mL of growth media (Ham's/F12-PS/10% FBS) was added, the suspension was gently mixed and the tube was centrifuged at approximately 250×g for 5 min. The medium was removed, the cell pellet was resuspended in 20 mL of medium, and cells were triturated to disperse cell clumps. For electrophysiology use, 2 mL of the cell suspension was plated in each 35 mm cell culture dish. Recording began 2-3 hours after plating once the cells settled out of the media and adhered to the bottom of the culture dish. […]
# Cells were transferred to the recording chamber and superfused with vehicle control solution. […] Onset and steady state inhibition of hKv1.7 current due to the test article was measured using a pulse pattern with fixed amplitudes (depolarization: +10 mV amplitude, 300 ms duration) repeated at 10-second intervals from a holding potential of −80 mV. Current amplitude was measured at the end of the step to +10 mV. Current was monitored until a new steady state was achieved. […] The IC50 for sustained current was calculated for 3,4-DAP phosphate salt.
# For 3,4-DAP phosphate salt, the concentration-response relationship was evaluated at seven concentrations (1, 10, 30, 100, 300, 1000 and 3000 μM) and for N-(4-aminopyridin-3-yl) acetamide HCl salt, the concentration-response relationship was evaluated at three concentrations (100, 1000 and 3000 μM).
# T1 sequence (Q96RP8 whole entry): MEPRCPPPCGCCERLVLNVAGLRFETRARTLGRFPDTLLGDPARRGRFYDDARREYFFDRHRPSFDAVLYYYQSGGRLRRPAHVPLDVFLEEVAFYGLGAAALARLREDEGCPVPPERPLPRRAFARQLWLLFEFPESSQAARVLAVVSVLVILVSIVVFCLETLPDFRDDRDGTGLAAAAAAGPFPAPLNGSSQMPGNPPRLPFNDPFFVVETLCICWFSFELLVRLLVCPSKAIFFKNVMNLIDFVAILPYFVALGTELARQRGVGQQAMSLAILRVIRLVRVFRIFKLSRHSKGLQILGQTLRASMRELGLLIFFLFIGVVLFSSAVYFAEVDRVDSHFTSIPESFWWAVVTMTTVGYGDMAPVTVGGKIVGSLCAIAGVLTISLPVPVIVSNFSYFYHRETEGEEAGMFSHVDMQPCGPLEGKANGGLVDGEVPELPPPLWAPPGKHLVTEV
structure (smiles),measurement,setting,value
"CC(=O)Nc1cnccc1N [3-N-acetyl amifampridine, N-(4-aminopyridin-3-yl)acetamide]",activity on K+ channel,,inactive
same,activity on K+ channel,listed as N-acetyl metabolite,not active

# Source: US11274332B2, “Methods of administering 3,4-diaminopyridine” (SERB SA, priority 2011, dated 2022)
